Test results from patent US12286455B2, “Anthelmintic depsipeptide compounds” (BOEHRINGER INGELHEIM ANIMAL HEALTH USA INC., priority 2015, dated 2025).

Experiments:
[1] = system: Dirofilaria immitis R isolate (reduced sensitivity to macrocyclic lactones); assay: Method D study 1: efficacy against induced D. immitis infection in beagle dogs (R isolate); type: in vivo; conditions: beagles
[2] = system: Dirofilaria immitis S isolate (sensitive to macrocyclic lactones); assay: Method D study 2: efficacy against induced D. immitis infection in beagle dogs (S isolate); type: in vivo; conditions: beagles
[3] = oral solution 2.5 mg/kg + ivermectin 6 μg/kg, days 0, 32, 60, 90 & 119, necropsy Day 150

SMILES | Efficacy [1, 3] [%] | other results
CC(C)C[C@H]1C(=O)O[C@H](C)C(=O)N(C)[C@@H](CC(C)(C)F)C(=O)O[C@H](Cc2ccc(C(F)(F)F)cc2)C(=O)N(C)[C@@H](CC(C)C)C(=O)O[C@H](C)C(=O)N(C)[C@@H](CC(C)(C)F)C(=O)O[C@H](Cc2ccc(C(F)(F)F)cc2)C(=O)N1C [Compound 4-18] | 100 | –
CC(C)C[C@H]1C(=O)O[C@H](C)C(=O)N(C)[C@@H](CC(C)(C)F)C(=O)O[C@H](Cc2ccc(N3CCOCC3)cc2)C(=O)N(C)[C@@H](CC(C)C)C(=O)O[C@H](C)C(=O)N(C)[C@@H](CC(C)(C)F)C(=O)O[C@H](Cc2ccc(N3CCOCC3)cc2)C(=O)N1C [Compound 6-18] | 100 | –
CC(C)C[C@H]1C(=O)O[C@H](C)C(=O)N(C)[C@@H](CC(C)(C)F)C(=O)O[C@H](Cc2ccc(C3CCOCC3)cc2)C(=O)N(C)[C@@H](CC(C)C)C(=O)O[C@H](C)C(=O)N(C)[C@@H](CC(C)(C)F)C(=O)O[C@H](Cc2ccc(C3CCOCC3)cc2)C(=O)N1C [Compound 7-18] | – | Efficacy ([1]; oral solution 1.0 mg/kg + ivermectin 6 μg/kg, days 0, 32, 60, 90 & 119, necropsy Day 150): 100%; Efficacy ([2]; oral solution 0.5 mg/kg, days 0, 30, 60, 90 & 120, necropsy Day 155): 100%; Efficacy ([2]; oral solution 2.5 mg/kg, days 0, 30, 60 & 154, necropsy Day 155): 100%
CC(C)C[C@H]1C(=O)O[C@H](Cc2ccc(C3CCOCC3)cc2)C(=O)N(C)[C@@H](CC(C)C)C(=O)O[C@H](C)C(=O)N(C)[C@@H](CC(C)C)C(=O)O[C@H](Cc2ccc(C3CCOCC3)cc2)C(=O)N(C)[C@@H](CC(C)C)C(=O)O[C@H](C)C(=O)N1C [Compound 7-27] | 100 | –
CC(C)C[C@H]1C(=O)O[C@H](Cc2ccc(N3CCOCC3)cc2)C(=O)N(C)[C@@H](CC(C)C)C(=O)O[C@H](C)C(=O)N(C)[C@@H](CC(C)C)C(=O)O[C@H](Cc2ccc(N3CCOCC3)cc2)C(=O)N(C)[C@@H](CC(C)C)C(=O)O[C@H](C)C(=O)N1C [emodepside, reference compound] | 98.8 | Efficacy ([1]; oral solution 2.5 mg/kg + ivermectin 6 μg/kg, days 0, 32, 60, 90 & 119, necropsy Day 150, listed as Emodepside): 98.8%
